Counter-ions that a name gives are not always drawn.

The target of test [1] is T1, human histamine H4 receptor (Homo sapiens, UniProt Q9H3N8).
T1 construct: purchased PerkinElmer Inc; host or cells: CHO-K1
The test can be described thus: Evaluation of Human H4 Receptor Affinity ([3H]histamine binding). As to conditions: inhibition constant Ki, CHO-K1 membrane preparation, read-out: Evaluation of H4 Receptor Affinity. The protocol:
Test Example 2: Evaluation of Human H4 Receptor Affinity
Membrane preparation from recombinant CHO-K1 cell expressing the human histamine H4 receptor (PerkinElmer Inc.), radiolabeled ligand 8.2 nM [^3H]histamine (PerkinElmer Inc.), and compounds dissolved in DMSO were reacted at 25° C. for 90 minutes in a buffering solution containing 50 mM tris-hydrochloric acid, pH 7.4, and 1.25 mM EDTA on a 96 well plate, followed by filtration using a GF/B filter (PerkinElmer Inc.) pretreated with 0.3% polyethylenimine. The residue was washed four times with a buffering solution of 50 mM tris-hydrochloric acid, pH 7.4. Thereafter, a scintillation cocktail (MicroScint 20: PerkinElmer Inc.) was added to the GF/B filter, and the radioactivity of each well was measured using a liquid scintillation counter for 96-well (TopCount: PerkinElmer Inc.). The non-specific binding was evaluated in the presence of 1.0 μM histamine. The inhibition constant Ki was calculated from the 50% inhibitory concentration (IC50 value) obtained in each test and the Kd value (5.7 nM) unique to this assay system, according to the Cheng-Prusoff equation.

In test [2] the target is human histamine H1 receptor (Homo sapiens, UniProt P35367). The test can be described thus: Evaluation of Human H1 Receptor Affinity ([3H]pyrilamine binding). Also on record: purchased PerkinElmer Inc; host or cells: CHO-K1. As to conditions: inhibition constant Ki, CHO-K1 membrane preparation. The protocol: Test Example 1: Evaluation of Human H1 Receptor Affinity
Membrane preparation from recombinant CHO-K1 cell expressing the human histamine H1 receptor (PerkinElmer Inc.), radiolabeled ligand 1.2 nM [^3H]pyrilamine (PerkinElmer Inc.), and test compounds dissolved in DMSO were reacted at 25° C. for 3 hours in a buffering solution containing 50 mM tris-hydrochloric acid, pH 7.4, and 5 mM magnesium chloride on a 96 well plate, followed by filtration using a GF/B filter (PerkinElmer Inc.) pretreated with 0.3% polyethylenimine. The residue was washed four times with a buffering solution of 50 mM tris-hydrochloric acid, pH 7.4. Thereafter, a scintillation cocktail (MicroScint 20: PerkinElmer Inc.) was added to the GF/B filter, and the radioactivity of each well was measured using a liquid scintillation counter for 96-well (TopCount: PerkinElmer Inc.). The non-specific binding was evaluated in the presence of 1.0 μM pyrilamine. The inhibition constant Ki was calculated from the 50% inhibitory concentration (IC50 value) obtained in each test and the Kd value (1.1 nM) unique to this assay system, according to the Cheng-Prusoff equation.

T1 sequence (Q9H3N8 whole entry): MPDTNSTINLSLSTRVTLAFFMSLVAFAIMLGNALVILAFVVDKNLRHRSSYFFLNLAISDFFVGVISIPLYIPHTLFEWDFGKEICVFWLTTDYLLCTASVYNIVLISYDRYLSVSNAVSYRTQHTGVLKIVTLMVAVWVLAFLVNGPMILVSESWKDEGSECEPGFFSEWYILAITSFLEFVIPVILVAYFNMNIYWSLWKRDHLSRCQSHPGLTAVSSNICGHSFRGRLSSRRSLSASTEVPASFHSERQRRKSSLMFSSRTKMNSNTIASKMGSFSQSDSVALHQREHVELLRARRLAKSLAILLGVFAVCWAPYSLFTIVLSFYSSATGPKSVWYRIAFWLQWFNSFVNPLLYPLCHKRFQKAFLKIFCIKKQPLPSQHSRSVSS
Chain of human histamine H1 receptor (P35367 whole entry): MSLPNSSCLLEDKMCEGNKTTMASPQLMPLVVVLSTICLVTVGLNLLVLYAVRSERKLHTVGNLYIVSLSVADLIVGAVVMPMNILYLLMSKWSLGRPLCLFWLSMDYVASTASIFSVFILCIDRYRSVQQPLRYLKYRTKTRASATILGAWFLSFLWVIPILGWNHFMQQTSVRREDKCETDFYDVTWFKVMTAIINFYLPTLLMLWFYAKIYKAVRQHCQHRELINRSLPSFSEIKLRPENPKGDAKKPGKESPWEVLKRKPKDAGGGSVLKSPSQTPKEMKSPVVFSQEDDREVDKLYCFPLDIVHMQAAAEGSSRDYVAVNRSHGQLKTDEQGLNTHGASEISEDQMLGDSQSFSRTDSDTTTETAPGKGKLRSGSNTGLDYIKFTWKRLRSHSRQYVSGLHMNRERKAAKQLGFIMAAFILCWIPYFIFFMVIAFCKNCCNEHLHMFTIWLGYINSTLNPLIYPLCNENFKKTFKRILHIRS

`Nc1nc2c(c(N3CCN(CCOCC4CNC4)CC3)n1)CCc1cc(OCc3ccc(OC(F)(F)F)cc3)ccc1-2` [38(b), 4-(4-(2-(azetidin-3-ylmethoxy)ethyl)piperazin-1-yl)-8-((4-(trifluoromethoxy)benzyl)oxy)-5,6-dihydrobenzo[h]quinazolin-2-amine]: the Ki in test [1] and in test [2] was < 100 nM each time.

In the case of `COC(=O)c1ccc(COCCN2CCN(c3nc(N)nc4c3CCc3cc(OCc5ccc(Cl)cc5)ccc3-4)CC2)o1` [127(a), methyl 5-((2-(4-(2-amino-8-((4-chlorobenzyl)oxy)-5,6-dihydrobenzo[h]quinazolin-4-yl)piperazin-1-yl)ethoxy)methyl)furan-2-carboxylate], the Ki in test [1] and in test [2] was < 100 nM throughout.

In the case of `COC(=O)c1ccc(COCCN2CCN(c3nc(N)nc4c3CCc3cc(OCc5ccc(Cl)cc5)ccc3-4)CC2)cc1` [128(a), methyl 4-((2-(4-(2-amino-8-((4-chlorobenzyl)oxy)-5,6-dihydrobenzo[h]quinazolin-4-yl)piperazin-1-yl)ethoxy)methyl)benzoate], the Ki was 100 to 500 nM in test [1] and < 100 nM in test [2].

Turning to `Nc1nc2c(c(N3CCN(CCOCc4ccc(C(=O)O)cc4)CC3)n1)CCc1cc(OCc3ccc(Cl)cc3)ccc1-2` [128(b), 4-((2-(4-(2-amino-8-((4-chlorobenzyl)oxy)-5,6-dihydrobenzo[h]quinazolin-4-yl)piperazin-1-yl)ethoxy)methyl)benzoic acid], the Ki in test [1] and in test [2] was < 100 nM in each case.

Regarding `COC(=O)c1ccc(F)c(COCCN2CCN(c3nc(N)nc4c3CCc3cc(OCc5ccc(Cl)cc5)ccc3-4)CC2)c1` [129(a), methyl 3-((2-(4-(2-amino-8-((4-chlorobenzyl)oxy)-5,6-dihydrobenzo[h]quinazolin-4-yl)piperazin-1-yl)ethoxy)methyl)-4-fluorobenzoate], the Ki in test [1] is 100 to 500 nM; in test [2] it was < 100 nM.

Turning to `COC(=O)c1cccc(OCCCN2CCN(c3nc(N)nc4c3CCc3cc(OCc5ccc(Cl)cc5)ccc3-4)CC2)c1` [131(a), methyl 3-(3-(4-(2-amino-8-((4-chlorobenzyl)oxy)-5,6-dihydrobenzo[h]quinazolin-4-yl)piperazin-1-yl)propoxy)benzoate], the Ki in test [1] is 100 to 500 nM; in test [2], < 100 nM.

Consider `Nc1nc2c(c(N3CCN(CCCOc4cccc(C(=O)O)c4)CC3)n1)CCc1cc(OCc3ccc(Cl)cc3)ccc1-2` [131(b), 3-(3-(4-(2-amino-8-((4-chlorobenzyl)oxy)-5,6-dihydrobenzo[h]quinazolin-4-yl)piperazin-1-yl)propoxy)benzoic acid], for which the Ki was 100 to 500 nM in test [1] and < 100 nM in test [2].

As for `CCOC(=O)c1csc(COCCN2CCN(c3nc(N)nc4c3CCc3cc(OCc5ccc(Cl)cc5)ccc3-4)CC2)n1` [135(a), ethyl 2-((2-(4-(2-amino-8-((4-chlorobenzyl)oxy)-5,6-dihydrobenzo[h]quinazolin-4-yl)piperazin-1-yl)ethoxy)methyl)thiazole-4-carboxylate], the Ki in test [1] and in test [2] was < 100 nM in each case.

`Nc1nc2c(c(N3CCN(CCOCc4nc(C(=O)O)cs4)CC3)n1)CCc1cc(OCc3ccc(Cl)cc3)ccc1-2` [135(b), 2-((2-(4-(2-amino-8-((4-chlorobenzyl)oxy)-5,6-dihydrobenzo[h]quinazolin-4-yl)piperazin-1-yl)ethoxy)methyl)thiazole-4-carboxylic acid dihydrochloride]: the Ki in test [1] and in test [2] was < 100 nM throughout.

Consider `CCOC(=O)C1(C#N)CCC(COCCN2CCN(c3nc(N)nc4c3CCc3cc(OCc5ccc(Cl)cc5)ccc3-4)CC2)CC1` (stereo not drawn) [159(a), ethyl cis- or trans-4-((2-(4-(2-amino-8-((4-chlorobenzyl)oxy)-5,6-dihydrobenzo[h]quinazolin-4-yl)piperazin-1-yl)ethoxy)methyl)-1-cyanocyclohexane-1-carboxylate], for which the Ki was 100 to 500 nM in test [1] and < 100 nM in test [2].

On to `N#CC1(C(=O)O)CCC(COCCN2CCN(c3nc(N)nc4c3CCc3cc(OCc5ccc(Cl)cc5)ccc3-4)CC2)CC1` (stereo not drawn) [159(b), cis- or trans-4-((2-(4-(2-amino-8-((4-chlorobenzyl)oxy)-5,6-dihydrobenzo[h]quinazolin-4-yl)piperazin-1-yl)ethoxy)methyl)-1-cyanocyclohexane-1-carboxylic acid hydrochloride], for which the Ki in test [1] and in test [2] was < 100 nM each time.

As to `CCOC(=O)C1(C#N)CCC(COCCN2CCN(c3nc(N)nc4c3CCc3cc(OCc5ccc(Cl)cc5)ccc3-4)CC2)CC1` (stereo not drawn) [160(a), ethyl trans- or cis-4-((2-(4-(2-amino-8-((4-chlorobenzyl)oxy)-5,6-dihydrobenzo[h]quinazolin-4-yl)piperazin-1-yl)ethoxy)methyl)-1-cyanocyclohexane-1-carboxylate], the Ki in test [1] was 100 to 500 nM; in test [2] it was < 100 nM.

Take `N#CC1(C(=O)O)CCC(COCCN2CCN(c3nc(N)nc4c3CCc3cc(OCc5ccc(Cl)cc5)ccc3-4)CC2)CC1` (stereo not drawn) [160(b), trans- or cis-4-((2-(4-(2-amino-8-((4-chlorobenzyl)oxy)-5,6-dihydrobenzo[h]quinazolin-4-yl)piperazin-1-yl)ethoxy)methyl)-1-cyanocyclohexane-1-carboxylic acid]: the Ki in test [1] and in test [2] was < 100 nM in each case.

For `CCOC(=O)C1CCC(O)(COCCN2CCN(c3nc(N)nc4c3CCc3cc(OCc5ccc(Cl)cc5)ccc3-4)CC2)CC1` (stereo not drawn) [166(a), ethyl cis- or trans-4-((2-(4-(2-amino-8-((4-chlorobenzyl)oxy)-5,6-dihydrobenzo[h]quinazolin-4-yl)piperazin-1-yl)ethoxy)methyl)-4-hydroxycyclohexane-1-carboxylate], the Ki in test [1] was 100 to 500 nM; in test [2], < 100 nM.

Turning to `Nc1nc2c(c(N3CCN(CCOCC4(O)CCC(C(=O)O)CC4)CC3)n1)CCc1cc(OCc3ccc(Cl)cc3)ccc1-2` (stereo not drawn) [166(b), cis- or trans-4-((2-(4-(2-amino-8-((4-chlorobenzyl)oxy)-5,6-dihydrobenzo[h]quinazolin-4-yl)piperazin-1-yl)ethoxy)methyl)-4-hydroxycyclohexane-1-carboxylic acid], the Ki in test [1] was 100 to 500 nM; in test [2] it was < 100 nM.

With `Nc1nc2c(c(N3CCNCC3)n1)CCc1cc(OCc3ccc(Cl)cc3)ccc1-2` [Example 4, 8-((4-chlorobenzyl)oxy)-4-(piperazin-1-yl)-5,6-dihydrobenzo[h]quinazolin-2-amine], the Ki in test [1] and in test [2] was < 100 nM throughout.

As to `Nc1nc2c(c(N3CCNCC3)n1)CCc1cc(OCc3ccccc3)ccc1-2` [Example 5, 8-(benzyloxy)-4-(piperazin-1-yl)-5,6-dihydrobenzo[h]quinazolin-2-amine], the Ki in test [1] and in test [2] was < 100 nM each time.

As for `Nc1nc2c(c(N3CCNCC3)n1)CCc1cc(OCc3ccc(OC(F)(F)F)cc3)ccc1-2` [Example 6, 4-(piperazin-1-yl)-8-((4-(trifluoromethoxy)benzyl)oxy)-5,6-dihydrobenzo[h]quinazolin-2-amine], the Ki in test [1] and in test [2] was < 100 nM in each case.

Consider `Nc1nc2c(c(N3CCN(CCO)CC3)n1)CCc1cc(OCc3ccccc3)ccc1-2` [Example 7, 2-(4-(2-amino-8-(benzyloxy)-5,6-dihydrobenzo[h]quinazolin-4-yl)piperazin-1-yl)ethan-1-ol], for which the Ki is 100 to 500 nM in test [1] and < 100 nM in test [2].

These data come from patent US20190047966A1, “NOVEL COMPOUND AND PHARMACOLOGICALLY ACCEPTABLE SALT THEREOF” (MEIJI SEIKA PHARMA CO., LTD., priority 2016, published 2019).
